Data as given in PMC8876244, “Effective Synthesis and Antifouling Activity of Dolastatin 16 Derivatives” (Marine Drugs, 2022).
Converted amounts (≈) assume the structure as drawn. Where two headings read alike, the source gives them in different places. Starred links: 1 amine or outer side, 2 acyl side, 3 side chain; linkers in the order of their positions; H or OH if unused. Non-standard residues stand in square brackets, D forms with d. Residues, ends and D or L forms follow the SMILES beside them. *: point of attachment. X3 = CC(=O)Oc1ccc(C[C@@H](C)[C@H](N[*:1])C(=O)[*:2])cc1; X4 = CC(C)[C@@H](N[*:1])[C@@H](C)C(=O)[*:2]; X1 = CC(Cc1ccccc1)C(N[*:1])C(=O)[*:2]; X2 = CC(C)C(N[*:1])C(C)C(=O)[*:2]; X5 = C[C@H](OCc1ccccc1)C(=O)*; dNMeV = CN[C@@H](C(=O)O)C(C)C; dHiv = CC(C)[C@@H](O)C(=O)O; Hiv = CC(C)[C@H](O)C(=O)O; Lac = C[C@H](O)C(=O)O; OBn = c1ccc(CO*)cc1

Columns and labels:
[1] = Antifouling assay: toxicity (mortality) to cypris larvae, 48 h exposure; details: Amphibalanus amphitrite (barnacle, cypris larvae), in vivo, 50% mortality of cyprids, highest concentration 10.0 μg/mL, read-out: LC50 (50% lethal concentration)
Experimental: (§1) Antifouling assay against larvae of the barnacle Amphibalanus amphitrite was conducted according to the previous literature. The adult barnacles, A. amphitrite, obtained from oyster farms in Lake Hamana and a pier of Shimizu bay, Shizuoka, were kept in an aquarium at 20 °C and were fed on Artemia salina nauplii. Broods were released as I–II stage nauplii upon immersion in seawater after drying overnight. The nauplii (1.0~3.0 indiv./mL) thus obtained were cultured in 2.0 L filtered (0.2 μm) natural seawater (diluted by DW: salinity 28) containing penicillin G (20 μg/mL) and streptomycin sulfate (30 μg/mL) at 25 °C and were fed on the diatom Chaetoceros gracillis at concentrations of 40 × 10^4 cells/mL. Larvae reached the cyprid stage in 5 days. The cyprids were collected, then stored at 4 °C until use (0-day-old).
(§2) The test compounds were dissolved in ethanol and aliquots of the solution (20 μL) were transferred to wells of a 24-well polystyrene culture plates and then air-dried for 3 h at room temperature and CuSO4 was used as positive compound. Four wells were used for each concentration (0.03, 0.1, 0.3, 1.0, 3.0, 10.0 μg/mL). To each well were added filtered ([…]) natural seawater (2.0 mL, salinity 28) and six 2-day-old cyprids. The plates were kept in the dark at 25 °C for 48 h. […] Three or four trials were carried out for each concentration. Antifouling activity (EC50) indicates the concentration reducing the larval settlement to 50% of the control (non-treatment) by Probit analysis. Toxicity of compounds were expressed as LC50 value, which indicates the concentration showing 50% mortality estimated by Probit analysis.

[2] = tested on: cypris larvae of the barnacle Amphibalanus amphitrite; test: Antifouling assay: inhibition of settlement of cypris larvae, 48 h exposure; assay type: in vivo; details: for EC50: Amphibalanus amphitrite, 48 h
Experimental: The antifouling activities of synthetic samples were evaluated as EC50 values against the cypris larvae of A. amphitrite by exposure of each compound for 48 h (Table 1, Figure 2). […] We next investigated the biological activity of the fragments.
as §1, §2

[3] = tested on: larval settlement and metamorphosis of the barnacle Amphibalanus amphitrite; set-up: method as in PMID 20658384; details: cited from earlier work
[4] = tested on: human cancer cell lines such as NCI-H460, KM20L2 and SF-295; details: cited from earlier work
[5] = tested on: cypris larvae of the barnacle Amphibalanus amphitrite; details: previous compounds and positive control, cited from earlier work; for EC50: read-out: EC50 (μM), antifouling activity
[6] = tested on: barnacle Amphibalanus amphitrite; set-up: method as in PMID 20658384; details: cited from earlier work
[7] = tested on: cypris larvae of the barnacle Amphibalanus amphitrite; details: previous compounds and positive control; cited from earlier work
[8] = larval settlement reduced to 50% of control, Probit analysis, read-out: EC50 (50% effective concentration), antifouling activity
[9] = larval settlement, read-out: EC50 (μM), antifouling activity

SMILES | LC50 [1] [µg/mL] | EC50 [2, 8] [µg/mL] | EC50 [2, 9] [µM] | EC50 (50% effective concentration), antifouling activity [5] [µg/mL] | EC50 [5] [µM] | LC50 (50% lethal concentration) [7] [µg/mL] | also measured
CC(C)[C@@H](NC(=O)[C@@H]1CCCN1C(=O)[C@@H](NC(=O)OC(C)(C)C)[C@H](C)Cc1ccccc1)[C@@H](C)C(=O)OCc1ccccc1 [Boc-3] | > 10 | < 1 | 1.3 | – | – | – | –
CC(C)C1NC(=O)[C@@H]2CCCN2C(=O)C(C(C)Cc2ccccc2)NC(=O)[C@@H]2CCCN2C(=O)[C@@H](C(C)C)N(C)C(=O)[C@@H](C(C)C)OC(=O)[C@@H]2CCCN2C(=O)[C@H](C)OC(=O)C1C (some centres unmarked) [Compound 1, Dolastatin 16] (cyclo([Lac]P[dHiv][dNMeV]P[X1]P[X2])) | – | – | – | <0.03 | < 0.03 | >10 | EC50 (50% effective concentration) [3]: 0.003 µg/mL (≈ 0.00341 µM); Growth inhibition of human cancer cell lines ([4]; 1 isolated from the natural sample): strong growth inhibitions; Anticancer activity of synthetic sample versus isolated compound ([4]; synthetic 1): much less potent than the isolated compound; LC50 (50% lethal concentration) [6]: 20 µg/mL (≈ 22.8 µM)
CC(C)[C@H](OC(=O)[C@@H]1CCCN1C(=O)[C@H](C)OCc1ccccc1)C(=O)N(C)[C@@H](C(=O)N1CCC[C@H]1C(=O)O)C(C)C [Compound 2] (X5-P[Hiv][dNMeV]P-OH) | – | – | – | >10 | > 17 | >10 | –
CC(C)[C@@H](NC(=O)[C@@H]1CCCN1C(=O)[C@@H](N)[C@H](C)Cc1ccccc1)[C@@H](C)C(=O)OCc1ccccc1 [Compound 3] | – | – | – | 1.17 (≈ 2.3 µM) | 1.92 | >10 | –
CC(C)[C@@H](NC(=O)[C@@H]1CCCN1C(=O)[C@@H](NC(=O)OC(C)(C)C)[C@H](C)Cc1ccc(O)cc1)[C@@H](C)C(=O)OCc1ccccc1 [Compound 21, Boc-Dpv(OH)-Pro-Dml-OBn] | > 10 | < 1 | 0.96 | – | – | – | –
CC(C)[C@@H](NC(=O)[C@@H]1CCCN1C(=O)[C@@H](NC(=O)OC(C)(C)C)[C@H](C)Cc1ccc(OCc2ccccc2)cc1)[C@@H](C)C(=O)OCc1ccccc1 [Compound 22, Boc-Dpv(OBn)-Pro-Dml-OBn] | > 10 | 4.62 | 6.47 | – | – | – | –
CC(=O)Oc1ccc(C[C@@H](C)[C@@H]2NC(=O)[C@@H]3CCCN3C(=O)[C@@H](C(C)C)N(C)C(=O)[C@H](C(C)C)OC(=O)[C@@H]3CCCN3C(=O)[C@H](C)OC(=O)[C@H](C)[C@@H](C(C)C)NC(=O)[C@@H]3CCCN3C2=O)cc1 [Compound 24, Dolastatin 16 Acetate] (cyclo([Hiv][dNMeV]P[X3]P[X4][Lac]P)) | – | – | – | – | – | – | LC50 at 48 h [1]: > 10 µg/mL; EC50 ([2]; read-out: EC50 (50% effective concentration), antifouling activity): 1.74 µg/mL; EC50 ([2]; read-out: EC50 (μM), antifouling activity): 1.86 µM; Antifouling activity (in words) ([2]; settlement of cypris larvae): much less potent than dolastatin 16
CC(C)[C@H](OC(=O)[C@@H]1CCCN1C(=O)[C@H](C)OCc1ccccc1)C(=O)N(C)[C@@H](C(=O)N1CCC[C@H]1C(=O)OCc1ccccc1)C(C)C [Compound 25, BnO-Lac-Pro-O-Hiv-D-MeVal-Pro-OBn] (X5-P[Hiv][dNMeV]P-OBn) | > 10 | < 1 | 1.32 | – | – | – | –
CC(C)[C@H](OC(=O)[C@@H]1CCCN1C(=O)OC(C)(C)C)C(=O)N(C)[C@@H](C(=O)N1CCC[C@H]1COCc1ccccc1)C(C)C [Compound 29, Boc-Pro-O-Hiv-D-MeVal-Pro-CH2OBn] | > 10 | 3.27 | 6.52 | – | – | – | –
O=S(=O)([O-])[O-].[Cu+2] [CuSO4, reference compound] | – | – | – | 0.10 | 0.63 | >10 | –
